Laboratory results published in article PMC8092876, “A Leucyl-tRNA Synthetase Inhibitor with Broad-Spectrum Antimycobacterial Activity” (Antimicrobial Agents and Chemotherapy, 2021).

Tested on: M. abscessus Bamboo
Format: cell-based
Settings: M. abscessus versus M. tuberculosis

In the case of `CC(C)(O)COc1ccc(Br)c2c1B(O)O[C@@H]2CN` [EC/11770], the “frequency of resistance lower than for other benzoxaboroles in M. tuberculosis” value is reported as 100 fold.
